Experiment [1] has as its system guanosine and adenosine. As to the kind of experiment: 1H NMR study of binding to DNA bases (guanosine/adenosine adduct formation). The settings on record: 500 MHz 1H NMR; guanosine:adenosine:compound mole ratio 1.3:1:1 in 10% D2O/90% H2O. From the text:
The ability of the compounds of the invention to bind to DNA bases was studied by nmr and the results are illustrated in the accompanying figures in which:
FIG. 1 is a 500 MHz ^1H NMR spectrum of a mixture of guanosine:adenosine:compound of Example 1 in the mole ratio 1.3:1:1, respectively, in 10% D2O/90% H2O.
In FIG. 2, the region from 5.1 to 5.4 ppm (right) corresponds to the central CH on the acac ligand. Peaks a and b correspond to the adenosine adducts, peak c to the guanosine adduct. In the region 7.9-8.6 ppm (left), peaks for the H2 and H8 protons of adenosine and H8 protons of guanosine appear. […] The atom labelling scheme for the nucleobase part (A and G) of the nucleosides is shown.

For experiment [2], the system named is A2780 ovarian cancer cell line. As to the kind of experiment: Cytotoxicity of Ru compounds on A2780 ovarian cancer cell line (cell count, Coulter counter). The format is cell-based. The settings on record: A2780 cells; 24 hours drug exposure, further 3 days growth, cells counted. As for the experimental part:
1. Protocol for Testing Ru Compounds The compounds are tested on 24-well trays. Cells growing in a flask are harvested just before they become confluent, counted using a haemocytometer and diluted down with media to a concentration of 1×10^4 cells per ml. The cells are then seeded in the 24-well trays at a density of 1×10^4 cells per well (i.e. 1 ml of the diluted cell suspension is added to each well). The cells are then left to plate down and grow for 72 hours before adding the compounds of the invention. The Ru complexes are weighed out and made up to a concentration of 1 mg/ml with deionised water and 0.5% w/w DMSO. The appropriate volume of the Ru solution is added to 5 ml of media to make it up to a concentration of 100 μM for each drug. This 100 μM solution is then serially diluted to make up the 10 μM, 1 μM and 0.1 μM solutions. The media is removed from the cells and replaced with 1 ml of the media dosed with drug. Each concentration is done in duplicate. A set of control wells are left on each plate, containing media and 0.5% w/w DMSO without drug. The cells are left exposed to the drugs for 24 hours and then washed with phosphate buffered saline before fresh media is added. They are allowed to grow on for a further 3 days before being counted using a Coulter counter. Preparing Cells for Counting: Media is removed and 1 ml of PBS is added to the cells. 250 μl of trypsin is added and cells left in incubator for a few minutes to allow the monolayers to detach. Once trypsinised, 250 μl of media is added to each well to neutralise the trypsin. 200 μl of this suspension is added to 10 ml of NaCl for counting. Using the above protocol, a number of compounds of the invention were tested on A2780 ovarian cancer cell line. […]

SMILES strings stand for the structures.

Broadly, the IC50 is the concentration that gives 50% inhibition. For the molecule `CC(=O)C=C(C)[O][Ru][Cl].Cc1ccc(C(C)C)cc1` [Example 1, [(η^6-p-cymene)RuCl(H3CCOCHCOCH3-O,O)]], the “adduct formation with adenosine and guanosine (binding to DNA bases)” value in experiment [1] is “both adenosine and guanosine form adducts”. Moreover, in experiment [2], the midpoint of inhibition, the IC50, lay at 19 µM.
`CC(=O)C=C(C)[O][Ru][Cl].c1ccc(-c2ccccc2)cc1` [Example 5, [(η^6—C6H5C6H5RuCl(H3CCOCHCOCH3—O,O)]] came in with an IC50 in experiment [2] of 21 µM.
In the case of `Cc1ccc(C(C)C)cc1.O=C([CH-]C(=O)C(F)(F)F)C(F)(F)F.[Cl-].[Ru+2]` [Example 2, [(η^6-p-cymene)RuCl(F3CCOCHCOCF3—O,O)]], the IC50 in experiment [2] was greater than 100 µM.
`CC(C)(C)C(=O)[CH-]C(=O)C(C)(C)C.Cc1ccc(C(C)C)cc1.[Cl-].[Ru+2]` [Example 4, [(η^6-p-cymene)RuCl((CH3)3CCOCHCOC(CH3)3—O,O)]] registered a concentration for half-maximal inhibition (IC50) in experiment [2] of 14 µM.
On the same count and under the same terms, the value for `CC#N.CC(=O)C=C(C)[O][Ru+].Cc1ccc(C(C)C)cc1.F[B-](F)(F)F` [Example 6, [(η^6-p-cymene)Ru(CH3CN)(H3CCOCHCOCH3—O,O)]BF4] was 22 µM; that for `Cc1ccc(C(C)C)cc1.O=C([CH-]C(=O)c1ccccc1)c1ccccc1.[Cl-].[Ru+2]` [Example 3, [(η^6-p-cymene)RuCl(C6H5COCHCOC6H5—O,O)]] was 11 µM.
